For 1 compound, MIC results are on record in ChEMBL document CHEMBL1255488, “Semimechanistic pharmacokinetic-pharmacodynamic model with adaptation development for time-kill experiments of ciprofloxacin against Pseudomonas aeruginosa” (2010).

The subject of assay [1] is Pseudomonas aeruginosa. The assay is described as follows: microbe, parasite or virus in culture. The conditions noted are these: PAO1.
Description: Antimicrobial activity against 0.12 ug/ml compound pre-treated Pseudomonas aeruginosa PAO1 in presence of 1 ug/ml of compound during plating experiment by microdilution method in presence of 40 ug/ml efflux-pump inhibitor PAbetaN
In assay [2] the test system is Pseudomonas aeruginosa. The assay is described as follows: microbe, parasite or virus in culture. The conditions noted are these: PAO1. This is another data set of the same source.
Description: Antimicrobial activity against 0.12 ug/ml compound pre-treated Pseudomonas aeruginosa PAO1 by microdilution method
For assay [3], the system named is Pseudomonas aeruginosa. The assay is described as follows: microbe, parasite or virus in culture. The conditions noted are these: PAO1. The source holds these as a separate data set.
Description: Antimicrobial activity against 0.12 ug/ml compound pre-treated Pseudomonas aeruginosa PAO1 in presence of 0.25 ug/ml of compound during plating experiment by microdilution method in presence of 40 ug/ml efflux-pump inhibitor PAbetaN
Assay [4] deals with Pseudomonas aeruginosa. Briefly: Antimicrobial activity against Pseudomonas aeruginosa PAO7H by microdilution method in presence of 40 ug/ml efflux-pump inhibitor PAbetaN.
The subject of assay [5] is Pseudomonas aeruginosa. The assay is described as follows: microbe, parasite or virus in culture. Particulars: PAO1. The source holds these as a separate data set.
Description: Antimicrobial activity against 0.25 ug/ml compound pre-treated Pseudomonas aeruginosa PAO1 in presence of 0.5 ug/ml of compound during plating experiment by microdilution method in presence of 40 ug/ml efflux-pump inhibitor PAbetaN
In assay [6] the test system is Pseudomonas aeruginosa. The assay is described as follows: microbe, parasite or virus in culture. The conditions noted are these: PAO1. This is another data set of the same source.
Description: Antimicrobial activity against 0.25 ug/ml compound pre-treated Pseudomonas aeruginosa PAO1 in presence of 0.25 ug/ml of compound during plating experiment by microdilution method
The test system of assay [7] is Pseudomonas aeruginosa. Briefly: microbe, parasite or virus in culture. The conditions noted are these: PAO1. This is another data set of the same source.
Description: Antimicrobial activity against 0.25 ug/ml compound pre-treated Pseudomonas aeruginosa PAO1 in presence of 1 ug/ml of compound during plating experiment by microdilution method in presence of 40 ug/ml efflux-pump inhibitor PAbetaN
Assay [8] relates to Pseudomonas aeruginosa. The assay is described as follows: microbe, parasite or virus in culture. Particulars: PAO1. The source holds these as a separate data set.
Assay [9] has as its system Pseudomonas aeruginosa. Briefly: microbe, parasite or virus in culture. Particulars: PAO1. This is another data set of the same source.
Description: Antimicrobial activity against 0.12 ug/ml compound pre-treated Pseudomonas aeruginosa PAO1 by microdilution method in presence of 40 ug/ml efflux-pump inhibitor PAbetaN
In assay [10] the test system is Pseudomonas aeruginosa. The assay is described as follows: microbe, parasite or virus in culture. Particulars: PAO1. The source holds these as a separate data set.
Description: Antimicrobial activity against 0.25 ug/ml compound pre-treated Pseudomonas aeruginosa PAO1 in presence of 0.5 ug/ml of compound during plating experiment by microdilution method
Assay [11] concerns Pseudomonas aeruginosa. Briefly: Antimicrobial activity against Pseudomonas aeruginosa PAO7H by microdilution method. Background: Dilution methods test growth across graded concentrations, often in twofold steps.
Assay [12] has as its system Pseudomonas aeruginosa. Briefly: microbe, parasite or virus in culture. The conditions noted are these: PAO1. This is another data set of the same source.
Description: Antimicrobial activity against 0.25 ug/ml compound pre-treated Pseudomonas aeruginosa PAO1 by microdilution method
Assay [13] has as its system Pseudomonas aeruginosa. Briefly: microbe, parasite or virus in culture. The conditions noted are these: PAO1. The source holds these as a separate data set.
Description: Antimicrobial activity against 0.12 ug/ml compound pre-treated Pseudomonas aeruginosa PAO1 in presence of 0.5 ug/ml of compound during plating experiment by microdilution method in presence of 40 ug/ml efflux-pump inhibitor PAbetaN
The subject of assay [14] is Pseudomonas aeruginosa. Briefly: microbe, parasite or virus in culture. The conditions noted are these: PAO1. The source holds these as a separate data set.
Description: Antimicrobial activity against 0.12 ug/ml compound pre-treated Pseudomonas aeruginosa PAO1 in presence of 2 ug/ml of compound during plating experiment by microdilution method in presence of 40 ug/ml efflux-pump inhibitor PAbetaN
Assay [15] concerns Pseudomonas aeruginosa. The assay is described as follows: microbe, parasite or virus in culture. The conditions noted are these: PAO1. This is another data set of the same source.
Description: Antimicrobial activity against 0.25 ug/ml compound pre-treated Pseudomonas aeruginosa PAO1 in presence of 1 ug/ml of compound during plating experiment by microdilution method
In assay [16] the test system is Pseudomonas aeruginosa. Briefly: Antimicrobial activity against Pseudomonas aeruginosa PAO1 by microdilution method in presence of 40 ug/ml efflux-pump inhibitor PAbetaN.
The test system of assay [17] is Pseudomonas aeruginosa. Briefly: microbe, parasite or virus in culture. Particulars: PAO1. This is another data set of the same source.
Description: Antimicrobial activity against 0.12 ug/ml compound pre-treated Pseudomonas aeruginosa PAO1 in presence of 0.25 ug/ml of compound during plating experiment by microdilution method
For assay [18], the system named is Pseudomonas aeruginosa. The assay is described as follows: microbe, parasite or virus in culture. Particulars: PAO1. The source holds these as a separate data set.
Description: Antimicrobial activity against 0.25 ug/ml compound pre-treated Pseudomonas aeruginosa PAO1 in presence of 0.25 ug/ml of compound during plating experiment by microdilution method in presence of 40 ug/ml efflux-pump inhibitor PAbetaN

Converted amounts (≈) assume the structure as drawn.

For the compound `O=C(O)c1cn(C2CC2)c2cc(N3CCNCC3)c(F)cc2c1=O` [CIPROFLOXACIN], the MIC is 0.12 µg/mL (≈ 0.362 µM) against Pseudomonas aeruginosa [1]; 1 µg/mL (≈ 3.02 µM) in the assay with Pseudomonas aeruginosa [2]; 0.12 µg/mL (≈ 0.362 µM) against Pseudomonas aeruginosa [3]; 0.06 µg/mL in the assay with Pseudomonas aeruginosa [4]; 0.12 µg/mL (≈ 0.362 µM) in the assay with Pseudomonas aeruginosa [5]; 1 µg/mL (≈ 3.02 µM) in the assay on Pseudomonas aeruginosa [6]. For the same compound, the MIC against Pseudomonas aeruginosa [7] stood at 0.12 µg/mL (≈ 0.362 µM); with Pseudomonas aeruginosa [8], 0.06 µg/mL (≈ 0.181 µM); in the assay on Pseudomonas aeruginosa [9] it was 0.06 µg/mL (≈ 0.181 µM); in the assay with Pseudomonas aeruginosa [10], 1 µg/mL (≈ 3.02 µM); against Pseudomonas aeruginosa [11] it was 1 µg/mL (≈ 3.02 µM); against Pseudomonas aeruginosa [12], 1 µg/mL (≈ 3.02 µM). Moreover, the MIC stood at 0.12 µg/mL (≈ 0.362 µM) with Pseudomonas aeruginosa [13]; 0.12 µg/mL (≈ 0.362 µM) against Pseudomonas aeruginosa [14]; 1 µg/mL (≈ 3.02 µM) with Pseudomonas aeruginosa [15]; 0.06 µg/mL in the assay on Pseudomonas aeruginosa [16]; 1 µg/mL (≈ 3.02 µM) against Pseudomonas aeruginosa [17]; 0.12 µg/mL (≈ 0.362 µM) with Pseudomonas aeruginosa [18].
